From patent US6362188B1, “Farnesyl protein transferase inhibitors” (Schering Corporation, priority 1998, dated 2002) come the findings set out here.

For one data set, the system named is Human tumor cells. In words: Soft Agar Assay (anchorage-independent growth). The data set is classed as cell-based. The conditions noted are these: colony outgrowth in soft agar, stated as a range for the group. The gist of the method: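 Tumor cells suspended in 0.3% agarose over a 0.6% agarose base, both layers containing the same farnesyl transferase inhibitor concentration. Incubated 10-16 days at 37° C, 5% CO2; colonies stained with MTT (1 mg/mL in PBS) and counted, IC50 determined.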

Each structure is given as a SMILES string.

For orientation: IC50 means the concentration that inhibits the measured activity by half. For orientation: melting point means the temperature of the solid-liquid transition. `Cc1cn(C[C@@H]2CCCN(C(=O)[C@H]3CN([C@@H]4c5ccc(Cl)cc5CCc5cc(F)cnc54)CCN3C(=O)OC3CCCCC3)C2)cn1` [Example 288] returned a melting point of 128 to 134 °C. Further, the IC50 with Human tumor cells lay within 0.05 to 30 nM.
Compound `CC(C)(C)OC(=O)N1CCN([C@H]2c3ccc(Cl)cc3CCc3cc(Br)cnc32)C[C@@H]1C(=O)N1CCC[C@@H](Cn2ccnc2)C1` [Example 13] displayed a melting point of 127 to 130 °C. In the data set with Human tumor cells, the IC50 was in the range of 0.5 to 30 nM.
For `O=C(C1CN(C2c3ccc(Cl)cc3CCc3cccnc32)CCN1C(=O)OC1CCCCC1)N1CCCC(Cc2cnc[nH]2)C1` (stereo not shown) [47(I)] the same measures were 113 to 115 °C and 0.05 to 30 nM.
For `Cc1cn(CC2CCCN(C(=O)C3CN(C4c5ccccc5CCc5cc(Cl)cnc54)CCN3C(=O)OC(C)(C)C)C2)cn1` (stereo not shown) [Example 292] the same measures were 95 to 105 °C and 0.05 to 30 nM.
For `Cc1cn(C[C@@H]2CCCN(C(=O)[C@H]3CN([C@H]4c5ccc(Cl)cc5CCc5cccnc54)CCN3C(=O)Cc3cc[n+]([O-])cc3)C2)cn1` [Example 412] the same measures were 175 °C (dec.) and 0.05 to 30 nM.
For `Cc1cn(C[C@@H]2CCCN(C(=O)[C@H]3CN([C@H]4c5ccccc5CCc5cc(Br)cnc54)CCN3C(=O)OC3CCCCC3)C2)cn1` [Example 351], the melting point fell in the range of 120 to 124 °C. In addition, in the data set on Human tumor cells, the IC50 fell in the range of 0.05 to 30 nM.
In the case of `Cc1cn(C[C@@H]2CCCN(C(=O)[C@H]3CN([C@@H]4c5ccc(Cl)cc5CCc5cc(Cl)cnc54)CCN3C(=O)OC3CCCCC3)C2)cn1` [Example 256], the melting point lay within 122 to 128 °C. The compound also gave an IC50 in the data set on Human tumor cells of 0.05 to 30 nM.
The matching figures for `Cc1cn(C[C@@H]2CCCN(C(=O)[C@H]3CN([C@H]4c5ccc(Cl)cc5CCc5cc(Br)cnc54)CCN3C(=O)Cc3ccc(F)cc3)C2)cn1` [Example 197]: 105 to 110 °C and 0.05 to 30 nM.
As to `Cc1cn(CC2CCCN2C(=O)C2CN(C3c4ccc(Cl)cc4CCc4cccnc43)CCN2C(=O)OC(C)(C)C)cn1` (stereo not shown) [35(F)], the melting point was in the range of 115 to 120 °C. The compound further yielded a concentration for half-maximal inhibition (IC50) in the data set with Human tumor cells of 0.05 to 30 nM.
Compound `Cc1cn(CC2CCCN(C(=O)C3CN(C4c5ccc(Cl)cc5CCc5cc(Br)cnc54)CCN3C(=O)OC(C)(C)C)C2)cn1` (stereo not shown) [Example 4.1] displayed a melting point of 114 to 121 °C. The compound also came in with an IC50 in the data set with Human tumor cells of 0.5 to 30 nM.
`CCc1cn(CC2CCCN(C(=O)C3CN(C4c5ccc(Cl)cc5CCc5cccnc54)CCN3C(=O)OC3CCCCC3)C2)cn1` (stereo not shown) [47(D)] displayed a melting point of 66 to 68 °C. In addition, the IC50 in the data set on Human tumor cells fell in the range of 0.05 to 30 nM.
`Cc1cn(C[C@@H]2CCCN(C(=O)[C@H]3CN([C@@H]4c5ccccc5CCc5cc(F)cnc54)CCN3C(=O)OC3CCCCC3)C2)cn1` [Example 384] registered a melting point of 104 to 111 °C. The IC50 in the data set on Human tumor cells fell in the range of 0.05 to 30 nM.
Take `CC(C)(C)OC(=O)N1CCN(C2c3ccc(Cl)cc3CCc3cccnc32)CC1C(=O)N1CCCC(Cn2ccnc2)C1` (stereo not shown) [Example 24]: the melting point was in the range of 115 to 126 °C. Further, the IC50 in the data set with Human tumor cells fell in the range of 0.5 to 30 nM.
For `Cc1cn(C[C@H]2CCCN(C(=O)[C@H]3CN([C@H]4c5ccccc5CCc5cc(Br)cnc54)CCN3C(=O)OC3CCCCC3)C2)cn1` [Example 353] the same measures were 121 to 127 °C and 0.05 to 30 nM.
The matching figures for `Cc1cn(C[C@H]2CCCN(C(=O)[C@H]3CN([C@H]4c5ccccc5CCc5cc(Cl)cnc54)CCN3C(=O)OC3CCCCC3)C2)cn1` [Example 321]: 112 to 121 °C and 0.05 to 30 nM.
The matching figures for `CC(C)(C)OC(=O)N1CCN([C@H]2c3ccc(Cl)cc3CCc3cc(Br)cnc32)C[C@@H]1C(=O)N1CCC[C@H](Cn2ccnc2)C1` [Example 11]: 122 to 127 °C and 0.5 to 30 nM.
Take `Cc1cn(C[C@@H]2CCCN(C(=O)[C@H]3CN([C@H]4c5ccc(Cl)cc5CCc5cc(Cl)cnc54)CCN3C(=O)OC(C)(C)C)C2)cn1` [Example 227]: the melting point lay in the range of 100 to 116 °C. In the data set on Human tumor cells, this compound showed an IC50 of 0.05 to 30 nM.
Regarding `O=C([C@H]1CN([C@@H]2c3ccc(Cl)cc3CCc3cc(Br)cnc32)CCN1C(=O)OC1CCCCC1)N1CCC[C@@H](Cn2ccnc2)C1` [Example 15], the melting point lay in the range of 140 to 144 °C. The compound further came in with a 50% inhibitory concentration (IC50) with Human tumor cells of 0.5 to 30 nM.
The matching figures for `Cc1cn(CC2CCCN(C(=O)C3CN(C4c5ccccc5CCc5cc(Cl)cnc54)CCN3C(=O)OC(C)(C)C)C2)cn1` (single isomer, unassigned) [Example 291]: 99 to 107 °C and 0.05 to 30 nM.
For `Cc1cn(C[C@@H]2CCCN(C(=O)[C@H]3CN([C@@H]4c5ccccc5CCc5cc(Br)cnc54)CCN3C(=O)OC3CCCCC3)C2)cn1` [Example 352] the same measures were 122 to 125 °C and 0.05 to 30 nM.
For `Cc1cn(C[C@H]2CCCN(C(=O)[C@H]3CN([C@@H]4c5ccccc5CCc5cc(Cl)cnc54)CCN3C(=O)OC3CCCCC3)C2)cn1` [Example 322] the same measures were 117 to 125 °C and 0.05 to 30 nM.
Consider `CC(C)(C)NC(=O)N1CCN([C@@H]2c3ccc(Cl)cc3CCc3cc(Br)cnc32)C[C@@H]1C(=O)N1CCC[C@@H](Cn2ccnc2)C1` [Example 16], for which the melting point lay within 148 to 153 °C. Also, in the data set on Human tumor cells, the IC50 was 0.5 to 30 nM.
Compound `Cc1nccn1CC1CCCN(C(=O)C2CN(C3c4ccc(Cl)cc4CCc4cc(Br)cnc43)CCN2C(=O)OC(C)(C)C)C1` (stereo not shown) [Example 3] yielded a melting point of 126 to 131 °C. In the data set on Human tumor cells, the concentration for half-maximal inhibition (IC50) fell in the range of 0.5 to 30 nM.
For the compound `Cc1cn(C[C@@H]2CCCN(C(=O)[C@H]3CN([C@H]4c5ccccc5CCc5cc(F)cnc54)CCN3C(=O)OC3CCCCC3)C2)cn1` [Example 383], the melting point is 121 to 126 °C. This compound also gave an IC50 with Human tumor cells of 0.05 to 30 nM.
Turning to `Cc1cn(C[C@@H]2CCCN(C(=O)[C@H]3CN([C@H]4c5ccc(Cl)cc5CCc5cccnc54)CCN3C(=O)OCC(C)(C)C)C2)cn1` [Example 411], the melting point was in the range of 103 to 115 °C. For the same compound, in the data set with Human tumor cells, the IC50 lay in the range of 0.05 to 30 nM.
The matching figures for `Cc1cn(C[C@@H]2CCCN(C(=O)[C@H]3CN([C@@H]4c5ccccc5CCc5cc(Br)cnc54)CCN3C(=O)OC(C)(C)C)C2)cn1` [Example 324]: 102 to 119 °C and 0.05 to 30 nM.
`Cc1cn(C[C@@H]2CCCN(C(=O)[C@H]3CN([C@H]4c5ccccc5CCc5cc(Br)cnc54)CCN3C(=O)OC(C)(C)C)C2)cn1` [Example 323]: the melting point was 109 to 124 °C. For the same compound, the IC50 in the data set on Human tumor cells lay in the range of 0.05 to 30 nM.
For `Cc1nccn1C[C@H]1CCCN(C(=O)[C@H]2CN([C@H]3c4ccc(Cl)cc4CCc4cccnc43)CCN2C(=O)NC(C)(C)C)C1` [Example 48] the same measures were 111 to 140 °C and 0.5 to 30 nM.
As to `Cc1cn(C[C@@H]2CCCN(C(=O)[C@H]3CN([C@H]4c5ccc(Cl)cc5CCc5cc(F)cnc54)CCN3C(=O)OC(C)(C)C)C2)cn1` [Example 259], the melting point lay within 126 to 135 °C. This compound also showed an IC50 in the data set on Human tumor cells of 0.05 to 30 nM.
`Cc1cn(C[C@@H]2CCCN(C(=O)[C@H]3CN([C@H]4c5ccc(Cl)cc5CCc5cc(Cl)cnc54)CCN3C(=O)OC3CCCCC3)C2)cn1` [Example 255] returned a melting point of 116 to 126 °C. This compound displayed an IC50 with Human tumor cells of 0.05 to 30 nM.
`Cc1cn(C[C@H]2CCCN(C(=O)[C@H]3CN([C@@H]4c5ccccc5CCc5cc(Cl)cnc54)CCN3C(=O)OC(C)(C)C)C2)cn1` [Example 294]: the melting point lay in the range of 102 to 118 °C. The compound further had an IC50 with Human tumor cells of 0.05 to 30 nM.
For `CC(C)(C)OC(=O)N1CCN([C@@H]2c3ccc(Cl)cc3CCc3cc(Br)cnc32)C[C@@H]1C(=O)N1CCC[C@H](Cn2ccnc2)C1` [Example 10] the same measures were 130 to 134 °C and 0.5 to 30 nM.
For `Cc1cn(CC2CCCCN(C(=O)C3CN(C4c5ccc(Cl)cc5CCc5cccnc54)CCN3C(=O)OC3CCCCC3)C2)cn1` (stereo not shown) [Example 47(CC)] the same measures were 108 to 113 °C and 0.05 to 30 nM.
For `Cc1nccn1CC1CCCN(C(=O)C2CN(C3c4ccc(Cl)cc4CCc4cccnc43)CCN2C(=O)OC(C)(C)C)C1` (stereo not shown) [Example 26] the same measures were 120 to 132 °C and 0.5 to 30 nM.
For `Cc1ncn(CC2CCCN(C(=O)C3CN(C4c5ccc(Cl)cc5CCc5cccnc54)CCN3C(=O)OC3CCCCC3)C2)c1C` (single isomer, unassigned) [47(G)], the melting point lay within 98 to 130 °C. Besides, in the data set with Human tumor cells, the IC50 was in the range of 0.05 to 30 nM.
`Cc1cn(C[C@@H]2CCCN(C(=O)[C@H]3CN([C@H]4c5ccc(Cl)cc5CCc5ccc[n+]([O-])c54)CCN3C(=O)OC3CCCCC3)C2)cn1` [Example 387] yielded a melting point of 85 to 90 °C. Besides, the IC50 in the data set on Human tumor cells was 0.05 to 30 nM.
For `CC(C)(C)OC(=O)N1CCN([C@@H]2c3ccc(Cl)cc3CCc3cc(Br)cnc32)C[C@@H]1C(=O)N1CCC[C@@H](Cn2ccnc2)C1` [Example 12] the same measures were 135 to 138 °C and 0.5 to 30 nM.
The matching figures for `Cc1cn(C[C@@H]2CCCN(C(=O)[C@H]3CN([C@@H]4c5ccccc5CCc5cc(Cl)cnc54)CCN3C(=O)OC3CCCCC3)C2)cn1` [Example 320]: 115 to 120 °C and 0.05 to 30 nM.
`Cc1cn(CC2CCCN(C(=O)C3CN(C4c5ccc(Cl)cc5CCc5cc(Cl)cnc54)CCN3C(=O)OC(C)(C)C)C2)cn1` (stereo not shown) [Example 230] registered a melting point of 121 to 127 °C. The concentration for half-maximal inhibition (IC50) in the data set with Human tumor cells was 0.05 to 30 nM.
For `CC(C)OC(=O)N1CCN([C@@H]2c3ccc(Cl)cc3CCc3cc(Br)cnc32)C[C@@H]1C(=O)N1CCC[C@@H](Cn2ccnc2)C1` [Example 14] the same measures were 126 to 128 °C and 0.5 to 30 nM.
The matching figures for `Cc1cn(C[C@H]2CCCN(C(=O)[C@H]3CN([C@@H]4c5ccc(Cl)cc5CCc5cc(F)cnc54)CCN3C(=O)OC3CCCCC3)C2)cn1` [Example 290]: 121 to 125 °C and 0.05 to 30 nM.
